In patent US20230414560A1, “COMPOSITIONS AND METHODS FOR TREATING ECZEMA” (General Nutraceutical Technology LLC, priority 2022, published 2023):
In brackets after ≈: the same amount, converted by molar mass. Where two headings read alike, the source gives them in different places.

Key:
[1] = cited from earlier work
[2] = test system: Raw 264.7 cells; assay: Raw 264.7 cytotoxicity (MTT assay); format: cell-based, murine; conditions: luteolin concentrations tested
Experimental: (§1) Cell viability of U266 was measured by trypan blue exclusion (Yang, Patil, et al., 2013). Cell suspension (10 uL) was mixed with trypan blue dye (10 uL), and viable cells and total cells counted with a hemocytometer. The cell viability was calculated using the equation: cell viability=(total number of viable cells)/(total number of cells). The viability of Raw 264.7 was evaluated using the MTT assay carried out as previously described (Liu, C. et al., 2015, Phytother Res, 29(6), 925-932). Cells were seeded into a 96-well plate at 2×10^4 cells/well, then different concentrations of SZT-I or active compounds were added to the plate. After 24 h, 50 μL MTT (2.0 mg/mL) was added to wells and the plate was incubated for a further 3 h. The supernatant was discarded, and the generated formazan was dissolved in dimethyl sulfoxide (DMSO) (200 μL). The absorbance of wells was detected at 590 nm.

[3] = test system: TNF-α; assay: TNF-α production by LPS-stimulated RAW 264.7 cells (ELISA); format: cell-based, murine
Experimental: (§2) Human U266 myeloma cells were cultured in complete media containing RPMI-1640 medium with 10% fetal bovine serum (FBS), 0.5% penicillin-streptomycin, 1×10^−5 mol/L of 0-mercaptoethanol, and 1 mmol/L of sodium pyruvate at 37° C. in an incubator with 5% CO2. U266 cells were cultured at initial 2×10^5 cell/mL with SZT-I or active compounds at different concentration. Then the supernatants were collected after 6 days. The level of IgE was. measured by an enzyme-linked immunosorbent assay (ELISA) kit according to the manufacturer's instructions. RAW 264.7 murine macrophages (5×10^5 cell/mL) were cultured in DMEM medium supplemented with 10% FBS, and 0.5% penicillin-streptomycin at 37° C. under 5% CO2. SZT-I or active compounds at different concentrations and LPS (0.5 μg/mL) added to cells. Supernatants were harvested after 24 h and analyzed by ELISA for TNF-α (Mabtech, In vitro studies-Cell viability Inc, Cincinnati, Ohio). Eotaxin inhibitory assays were conducted by using human fetal lung fibroblast (HFL-1) cells. HFL-1 (CCL-153) cells were grown in F-12K medium (ATCC, Rockville, MD) containing 10% fetal bovine serum (Gibco BRL, Grand Island, NY) and 1% penicillin-streptomycin (BD Bio, San Jose, CA). […] Eotaxin levels were determined by using ELISA (R&D Systems) according to the directions of the manufacturer.

[4] = test system: PPARG; assay: RT-PCR mRNA expression of hub target PPARG after LPS; format: cell-based, murine; conditions: inhibited by LPS
Experimental: (§3) Expressions of targets were measured by RT-PCR. After treatment, total RNA was collected from the esophagus. Reverse transcription was conducted to obtain the cDNA. The RT-PCR amplification was performed using SYBRTM Green Master Mix with primers. The primer sequences were listed as follows: m-TNF-α: F-[…] (SEQ ID NO: 3); R-[…] (SEQ ID NO: 4). m-Bcl2: F-[…] (SEQ ID NO: 5); R-[…] (SEQ ID NO: 6). m-IL1B: F-[…] (SEQ ID NO: 7); R-[…] TGTGTG (SEQ ID NO: 8). m-PPARG: F-[…] (SEQ ID NO: 9); R-[…] (SEQ ID NO: 10).

[5] = test system: IgE; assay: IgE production by U266 myeloma cells (ELISA); format: cell-based, Human
Experimental: as §2

[6] = test system: TNF-α; assay: RT-PCR mRNA expression of hub target TNF-α after LPS; format: cell-based, murine; conditions: after LPS stimulation
Experimental: as §3

[7] = test system: U266 cells; assay: U266 cell viability (trypan blue exclusion); format: cell-based, Human; conditions: at the concentrations reducing IgE
Experimental: as §1

[8] = test system: IL1B; assay: RT-PCR mRNA expression of hub target IL1B after LPS; format: cell-based, murine; conditions: after LPS stimulation
Experimental: as §3

[9] = test system: Bcl2; assay: RT-PCR mRNA expression of hub target Bcl2 after LPS; format: cell-based, murine; conditions: Raw cells
Experimental: as §3

Row | Compound | O.B. (oral bioavailability) ([1]; TCMSP database, Table 1) | also measured
1 | COc1cc2oc3c4c(O)cc(O)cc4oc(=O)c3c2cc1OC [1,3-dihydroxy-8,9-dimethoxy-6-benzofurano[3,2-c]chromenone] | 62.9 | –
2 | C=C(CC[C@@H](C(=O)O)[C@H]1[C@H](O)C[C@@]2(C)C3=C(CC[C@]12C)[C@@]1(C)CC[C@H](OC(C)=O)C(C)(C)[C@@H]1CC3)C(C)C [Pachymic acid] | 33.63 | –
3 | CCCCCCCC/C=C\CCCCCCCC(=O)OCC [Ethyl oleate] | 32.4 | –
4 | β-amyrin acetate | – | O.B. (oral bioavailability) ([1]; po): 42.06
5 | CC(C)=CCc1c(O)cc(O)c2c(=O)c(-c3ccc(O)c(O)c3)coc12 [3-(3,4-dihydroxyphenyl)-5,7-dihydroxy-8-(3-methylbut-2-enyl)chromone] | 66.37 | –
6 | CCC(/C=C/[C@H](C)[C@@H]1CC[C@@H]2[C@@H]3CC=C4C[C@@H](O)CC[C@]4(C)[C@@H]3CC[C@@]21C)C(C)C (stereo partly shown) [ZINC03978781] | 43.83 | –
7 | O=c1cc(-c2ccc(O)c(O)c2)oc2cc(O)cc(O)c12 [Luteolin] | – | cell toxicity on Raw 264.7 [2]: no significant cell toxicity; OB (oral bioavailability) ([1]; TCMSP database): 36.16%; IC50 ([3]; Mus musculus, RAW264.7, Raw 264.7 cells, LPS 0.5 μg/mL, 24 h): 5.61 µg/mL (≈ 19.6 µM); production of TNF-α compared with quercetin and kaempferol ([3]; Raw 264.7 cells stimulated by LPS, 20 μg/mL): significantly inhibited; mRNA expression of PPARG [4]: upregulated; production of IgE ([5]; 10 μg/mL): strongly diminished; IC50 ([5]; Homo sapiens, U-266, 144 h, 6 days): ~4.81 µg/mL (≈ 16.8 µM); mRNA expression of TNF-α [6]: reversed; cytotoxicity on U266 [7]: without cytotoxicity; mRNA expression of IL1B [8]: reversed; mRNA expression of Bcl2 [9]: increased the expression of Bcl2 significantly
8 | Sitosterol | 36.91 | OB (oral bioavailability) ([1]; TCMSP database): 36.91%
9 | COc1ccc(C(=O)/C=C/c2ccc(O)cc2OC)cc1 [Glypallichalcone] | 61.6 | –
10 | C=C(C)[C@@H]1CC[C@]2(C(=O)O)CC[C@]3(C)[C@H](CC[C@@H]4[C@@]5(C)CC[C@H](O)C(C)(C)[C@@H]5CC[C@]43C)[C@@H]12 [Betulinic acid] | 55.38 | –
11 | O=C1/C(=C2\Nc3ccccc3C2=O)Nc2ccccc21 [Indigo] | 38.2 | –
12 | CC1(C)C=Cc2c(ccc3cc(-c4ccc(O)cc4O)c(=O)oc23)O1 [Kanzonols W] | 50.48 | –
13 | CN1CCc2cc3c(cc2[C@H]1[C@H]1OC(=O)c2c1ccc1c2OCO1)OCO3 [bicuculline] | 69.67 | –
14 | CC1=C(/C=C/C(C)=C/C=C/C(C)=C/C=C/C=C(C)/C=C/C=C(C)/C=C/C2=C(C)CCCC2(C)C)C(C)(C)CCC1 [β-carotene] | 37.18 | –
15 | β-sitosterol | 36.91 | OB (oral bioavailability) ([1]; TCMSP database): 36.91%
16 | CCCCC/C=C/C/C=C/CCCCCCCCCC(=O)O [11,14-eicosadienoic acid] | 39.99 | –
17 | CC/C=C/C/C=C/C/C=C/CCCCCCCC(=O)OCC [Ethyl linolenate] | 46.1 | –
18 | C[C@@]12C[C@@]3(O)O[C@H](O1)[C@@]1(COC(=O)c4ccccc4)[C@@H]3C[C@]12O[C@@H]1O[C@H](CO)[C@H](O)[C@H](O)[C@@H]1O [paeoniflorin_qt] | 68.18 | –

Row | Compound | O.B. (oral bioavailability) ([1]; TCMSP database, Table 1) | also measured
19 | CC(C)=CC[C@H](O)C1=CC(=O)c2c(O)ccc(O)c2C1=O [Shikonin] | 64.79 | –
20 | COc1ccc(-c2coc3cc(O)ccc3c2=O)cc1 [Formononetin] | 69.67 | –
21 | COc1cc(-c2cc(=O)c3c(O)cc(O)cc3o2)ccc1O [Chryseriol] | 35.85 | –
22 | CC1(C)C=Cc2c(ccc3c2OC[C@@H](c2ccc(O)cc2O)C3)O1 [Glabridin] | 53.25 | –
23 | Oc1cc(O)c2c(c1)O[C@H](c1ccc(O)c(O)c1)[C@@H](O)C2 [Cianidanol] | 36.91 | –
24 | COc1c(CC=C(C)C)c(O)cc2oc(=O)c3c4ccc(O)cc4oc3c12 [Glycyrol] | 90.78 | –
25 | COc1cc(O)cc2c1[C@@H]1Oc3c(ccc(O)c3CC=C(C)C)[C@@H]1CO2 [1-Methoxyphaseol-lidin] | 69.98 | –
26 | CC1(C)C=Cc2c(ccc(-c3coc4cc(O)ccc4c3=O)c2O)O1 [Glabrone] | 52.51 | –
27 | O=c1c(O)c(-c2ccc(O)c(O)c2)oc2cc(O)cc(O)c12 [Quercetin] | 46.43 | –
28 | COc1c(/C=C/C(=O)c2ccc(O)cc2)ccc(O)c1O [Licochalcone B] | 76.76 | –
29 | O=c1c(O)c(-c2ccc(O)cc2)oc2cc(O)cc(O)c12 [Kaempferol] | 41.88 | –
30 | CC(C)=CCc1c(O)cc(O)c2c(=O)c(-c3ccc(O)cc3)coc12 [Lupiwighteone] | 51.64 | –
31 | COc1c(O)cc(O)c2c(=O)cc(-c3ccccc3)oc12 [wogonin] | 30.68 | –
32 | CC(C)=CCc1c(O)cc2c(c1O)C=C(c1ccc(O)cc1O)CO2 [dehydroglyasperins C] | 53.82 | –
33 | O=C1C[C@@H](c2ccc(O[C@@H]3O[C@H](CO)[C@@H](O)[C@H](O)[C@H]3O)cc2)Oc2cc(O)ccc21 [liquiritin] | 65.69 | –
34 | CCCCC/C=C\C/C=C\CCCCCCCC(=O)OCC [Mandenol] | 42 | –
35 | O=C1C[C@H](c2ccc(O)cc2)Oc2cc(O)ccc21 [(2R)-7-hydroxy-2-(4-hydroxyphenyl) chroman-4-one] | 71.12 | –
36 | Stigmasterol | 43.83 | OB (oral bioavailability) ([1]; TCMSP database): 43.83%
